Laboratory results reported in US8076486B2, “Heteroaryl-substituted arylaminopyridine derivatives as MEK inhibitors” (Merck Serono S.A., priority 2006, dated 2011).

Legend:
[1] = test system: human pancreatic MiaPaCa-2 cells; test: Tumor Cell Proliferation Assay (ATP Lite), MiaPaCa-2; type: cell-based; details: MIA PaCa-2, 96 h, 4 days, ATPlite, read-out: MiaPaCa2 cell proliferation IC50
How it was run: (§1)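 C26 (1500 cells/well; DMEM/10% FBS), MiaPaCa-2 (2000 cells/well; DMEM/10% FBS) and A375 (2000 cells/well; RPMI/10% FBS) were plated overnight at 37 °C, 5% CO2. Cells were then exposed to serially diluted compounds (0.25% DMSO final) for 4 days. Proliferation was read by ATPlite luminescence.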

[2] = test system: human melanoma A375 cells; test: Tumor Cell Proliferation Assay (ATP Lite), A375; type: cell-based; details: A-375, 96 h, 4 days, ATPlite
How it was run: as §1

[3] = test system: A375 Xenograft; test: Tumor Growth Inhibition in A375 Xenograft Studies (Malignant Melanoma Model); type: in vivo, nude (nu/nu) mice; details: A375 xenograft in male nude mice, to Day 14
Protocol: In vivo Efficacy Evaluation: Tumor Growth Inhibition in A375 Xenograft Studies (Malignant Melanoma Model)
Male nude (nu/nu) mice (100 total, 24-26 g body wt) were purchased from Charles River Laboratories. Animals were injected subcutaneously above the right foreleg with 5×10^6 A375 cells in 100 ul of PBS. Tumors were measured with calipers 4, 7, 11 and 14 days after cells were implanted. Tumor length (l) and width (w) were measured and tumor volume was calculated with the equation l*w^2/2. At 16 days after cancer cells were implanted, tumors had reached an average volume of 93 mm^3, at which time the animals were sorted into 6 groups so that each group had the same mean tumor volume. The vehicle used for dosing the compound in suspension was 10% Tween 80 in water.
Treatments began on the afternoon of the 16th day after cancer cell injections, which was designated as Day 0. Tumor volume and body weight was measured for each animal 3 times per week until Day 14. On Day 14, all animals were euthanized, tumors removed and weighted.

[4] = test system: Murine colon C26 cells; test: Tumor Cell Proliferation Assay (ATP Lite), C26; type: cell-based; details: Mus musculus, 96 h, 4 days, ATPlite
How it was run: as §1

[5] = target: human MEK1 (Homo sapiens, UniProt Q02750, S218E/S222E); test: MEK-1 Enzyme Assay (LANCE-HTRF); type: biochemical; details: MEK-1 EE, ERK-2K52A substrate, 9 uM ATP, 1.5 hrs
human MEK1, sequence (Q02750 whole entry S218E/S222E): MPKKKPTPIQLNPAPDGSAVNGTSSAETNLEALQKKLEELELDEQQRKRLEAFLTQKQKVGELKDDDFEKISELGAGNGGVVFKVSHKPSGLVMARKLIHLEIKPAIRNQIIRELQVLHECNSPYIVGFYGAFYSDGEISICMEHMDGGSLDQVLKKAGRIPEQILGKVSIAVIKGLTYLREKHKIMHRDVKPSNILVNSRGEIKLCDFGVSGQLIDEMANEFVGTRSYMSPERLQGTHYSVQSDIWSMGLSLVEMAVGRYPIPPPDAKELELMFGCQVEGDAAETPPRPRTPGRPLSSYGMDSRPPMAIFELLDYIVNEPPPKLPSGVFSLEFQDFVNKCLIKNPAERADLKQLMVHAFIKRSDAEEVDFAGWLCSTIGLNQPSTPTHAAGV
How it was run: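 Constitutively active MEK-1 EE with ERK-2 K52A substrate, 9 uM ATP, pH 8.0, 1% DMSO, incubated 1.5 h at room temperature with serially diluted inhibitor. EDTA quench, then Eu anti-phosphotyrosine/APC anti-GST HTRF detection (665/615 ratio). IC50 determined.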

IC50 [1]: ≤ 3000 nM | IC50 [2]: ≤ 3000 nM | IC50 [4]: ≤ 3000 nM | IC50 [5]: ≤ 3000 nM
SMILES: Nc1nnc(-c2ccncc2Nc2ccc(I)cc2F)o1 [Example 2, [4-(5-Amino-[1,3,4]oxadiazol-2-yl)-pyridin-3-yl]-(2-fluoro-4-iodo-phenyl)-amine]
effect on tumor growth ([3]; dose of 0.5 mg/kg): significant tumor growth inhibition | effect on tumor growth ([3]; dose of 10 mg/kg): tumor regression
